Values of other authors, collected in patent US20070015926A1, “Method of preparing R-(+)-alpha-lipoic acid and its salt” (Nanjing Rally Biochemical Inc., priority 2005, published 2007).

Conditions: if given adequate oxygen

polymerization: susceptible to be polymerized
SMILES: O=C(O)CCCC[C@@H]1CCSS1 [R-(+)-α-Lipoic Acid]
